Source: patent publication EP1953147A1, “HETEROCYCLIC COMPOUND AND MEDICINAL APPLICATION THEREOF” (priority 2005, dated 2007)

System: ΔG/SEAP/HCV E1E2
Assay: Effect of test substance on cell infection with HCV pseudotype virus (SEAP reporter assay in HepG2 cells)
Format: cell-based
Details: Hepatitis C virus

**Q.** With `COc1cc(OC)cc(-c2nn(-c3cc(NCC(C)O)ccc3C(F)(F)F)c(=O)c3c2CCC3)c1` (stereo not drawn) [Example 132, 4-(3,5-dimethoxy-phenyl)-2-[5-(2-hydroxy-propylamino)-2-trifluoromethyl-phenyl]-2,5,6,7-tetrahydro-cyclopenta[d]pyridazin-1-one] as the compound, how does the IC50 read?
**A.** Its IC50 is less than 100 nM.

**Q.** For `CN(C)c1ccc(-c2nn(-c3cc(N4CC[C@H](O)C4)ccc3C(F)(F)F)c(=O)c3c2CCC3)cc1` [Example 112, 4-(4-dimethylamino-phenyl)-2-[5-((S)-3-hydroxy-pyrrolidin-1-yl)-2-trifluoromethyl-phenyl]-2,5,6,7-tetrahydro-cyclopenta[d]pyridazin-1-one], which IC50 is on record?
**A.** Its IC50 is less than 100 nM.

**Q.** Which IC50 does the source give for `COc1cc(OC)cc(-c2nn(-c3cc(NCC4CC4)ccc3C(F)(F)F)c(=O)c3c2CCC3)c1` [Example 141, 2-[5-(cyclopropylmethyl-amino)-2-trifluoromethylphenyl]-4-(3,5-dimethoxy-phenyl)-2,5,6,7-tetrahydro-cyclopenta[d]pyridazin-1-one] here?
**A.** The IC50 was less than 100 nM.

**Q.** `NC(=O)c1ccc(-c2nn(-c3cc(N4CC[C@H](O)C4)ccc3C(F)(F)F)c(=O)c3c2CCC3)cc1` [Example 99, 4-{3-[5-((S)-3-hydroxy-pyrrolidin-1-yl)-2-trifluoromethyl-phenyl]-4-oxo-4,5,6,7-tetrahydro-3H-cyclopenta[d]pyridazin-1-yl}-benzamide] was tested. Which IC50 did it give?
**A.** Its IC50 is 100 to 10000 nM.

**Q.** How did the IC50 turn out when `CCCCCC(=O)NCCNC(=O)CN1CCc2c(-c3cc(OC)cc(OC)c3)nn(-c3cc(N4CC[C@H](O)C4)ccc3C(F)(F)F)c(=O)c21` [Example 46, hexanoic acid [2-(2-{4-(3,5-dimethoxy-phenyl)-6-[5-((S)-3-hydroxy-pyrrolidin-1-yl)-2-trifluoromethylphenyl]-7-oxo-2,3,6,7-tetrahydro-pyrrolo[2,3-d]pyridazin-1-yl}-acetylamino)-ethyl]-amide] was run?
**A.** The IC50 was less than 100 nM.

**Q.** `COc1cc(OC)cc(-c2nn(-c3cc(C#CCO)ccc3C(F)(F)F)c(=O)c3c2CCC3)c1` [Example 120, 4-(3,5-dimethoxy-phenyl)-2-[5-(3-hydroxy-prop-1-ynyl)-2-trifluoromethyl-phenyl]-2,5,6,7-tetrahydro-cyclopenta[d]pyridazin-1-one] was tested. Which IC50 did it give?
**A.** Its IC50 is less than 100 nM.

**Q.** With `COc1cc(OC)cc(-c2nn(-c3cc(N4CC[C@H](O)C4)ccc3N(C)C)c(=O)c3c2CCC3)c1` [Example 1-6, 4-(3,5-dimethoxy-phenyl)-2-[2-dimethylamino-5-((S)-3-hydroxy-pyrrolidin-1-yl)-phenyl]-2,5,6,7-tetrahydro-cyclopenta[d]pyridazin-1-one] as the compound, how does the IC50 read?
**A.** Its IC50 is 100 to 10000 nM.

**Q.** `COc1cc(C)cc(-c2nn(-c3cc(N4CC[C@@H](O)C4)ccc3C(F)(F)F)c(=O)c3c2CCC3)c1` [Example 23, 2-[5-((R)-3-hydroxy-pyrrolidin-1-yl)-2-trifluoromethyl-phenyl]-4-(3-methoxy-5-methyl-phenyl)-2,5,6,7-tetrahydro-cyclopenta[d]pyridazin-1-one] was tested. Which IC50 did it give?
**A.** The IC50 was less than 100 nM.

**Q.** How did the IC50 turn out when `COc1cc(OC)cc(-c2nn(-c3cc(NCCCN(C)C)ccc3C(F)(F)F)c(=O)c3c2CCC3)c1` [Example 128, 4-(3,5-dimethoxy-phenyl)-2-[5-(3-dimethylamino-propylamino)-2-trifluoromethyl-phenyl]-2,5,6,7-tetrahydro-cyclopenta[d]pyridazin-1-one] was run?
**A.** The IC50 was less than 100 nM.

**Q.** With `COc1cc(OC)cc(-c2nn(-c3cc(OC)ccc3C(F)(F)F)c(=O)c3c2CCC3)c1` [Example 69, 4-(3,5-dimethoxy-phenyl)-2-(5-methoxy-2-trifluoromethyl-phenyl)-2,5,6,7-tetrahydro-cyclopenta[d]pyridazin-1-one] as the compound, how does the IC50 read?
**A.** The IC50 was less than 100 nM.

**Q.** With `CCOc1ccc(C(F)(F)F)c(-n2nc(-c3cc(OC)cc(OC)c3)c3c(c2=O)CCC3)c1` [Example 62, 4-(3,5-dimethoxy-phenyl)-2-(5-ethoxy-2-trifluoromethyl-phenyl)-2,5,6,7-tetrahydro-cyclopenta[d]pyridazin-1-one] as the compound, how does the IC50 read?
**A.** The IC50 was less than 100 nM.

**Q.** Which IC50 does the source give for `COc1cc(OC)cc(-c2nn(-c3cc(F)ccc3C(F)(F)F)c(=O)c3c2CCN3)c1` [Example 50, 4-(3,5-dimethoxy-phenyl)-6-(5-fluoro-2-trifluoromethyl-phenyl)-1,2,3,6-tetrahydro-pyrrolo[2,3-d]pyridazin-7-one] here?
**A.** The IC50 was 100 to 10000 nM.

**Q.** Which IC50 does the source give for `COc1cc(OC)cc(-c2nn(-c3cc(N4CC[C@@H](O)C4)ccc3C(F)(F)F)c(=O)c3c2CCN3)c1` [Example 24, 4-(3,5-dimethoxy-phenyl)-6-[5-((R)-3-hydroxy-pyrrolidin-1-yl)-2-trifluoromethyl-phenyl]-1,2,3,6-tetrahydro-pyrrolo[2,3-d]pyridazin-7-one] here?
**A.** Its IC50 is less than 100 nM.

**Q.** How did the IC50 turn out when `COc1cc(OC)cc(-c2nn(-c3ccccc3C(F)(F)F)c(=O)c3c2CCC3)c1` [Example 107, 4-(3,5-dimethoxy-phenyl)-2-(2-trifluoromethylphenyl)-2,5,6,7-tetrahydro-cyclopenta[d]pyridazin-1-one] was run?
**A.** The IC50 was 100 to 10000 nM.

**Q.** How did the IC50 turn out when `Cc1cc(C)cc(-c2nn(-c3cc(N4CC[C@H](O)C4)ccc3C(F)(F)F)c(=O)c3c2CCN3)c1` [Example 11, 4-(3,5-dimethyl-phenyl)-6-[5-((S)-3-hydroxy-pyrrolidin-1-yl)-2-trifluoromethyl-phenyl]-1,2,3,6-tetrahydro-pyrrolo[2,3-d]pyridazin-7-one] was run?
**A.** Its IC50 is less than 100 nM.

**Q.** `COc1cncc(-c2nn(-c3cc(N4CC[C@H](O)C4)ccc3C(F)(F)F)c(=O)c3c2CCN3C(N)=O)c1` [Example 1-29, 6-[5-((S)-3-hydroxy-pyrrolidin-1-yl)-2-trifluoromethylphenyl]-4-(5-methoxy-pyridin-3-yl)-7-oxo-2,3,6,7-tetrahydro-pyrrolo[2,3-d]pyridazine-1-carboxamide] was tested. Which IC50 did it give?
**A.** Its IC50 is less than 100 nM.

**Q.** For `COc1cc(OC)cc(-c2nn(-c3cc(NCC(N)=O)ccc3C(F)(F)F)c(=O)c3c2CCC3)c1` [Example 123, 2-{3-[4-(3,5-dimethoxy-phenyl)-1-oxo-1,5,6,7-tetrahydro-cyclopenta[d]pyridazin-2-yl]-4-trifluoromethyl-phenylamino}-acetamide], which IC50 is on record?
**A.** The IC50 was less than 100 nM.

**Q.** With `CNC(=O)CCCNc1ccc(C(F)(F)F)c(-n2nc(-c3cc(OC)cc(OC)c3)c3c(c2=O)CCC3)c1` [Example 153, 4-{3-[4-(3,5-dimethoxy-phenyl)-1-oxo-1,5,6,7-tetrahydro-cyclopenta[d]pyridazin-2-yl]-4-trifluoromethyl-phenylamino}-N-methyl-butyramide] as the compound, how does the IC50 read?
**A.** The IC50 was less than 100 nM.

**Q.** For `COc1cccc(-c2nn(-c3cc(N4CC[C@H](O)C4)ccc3C(F)(F)F)c(=O)c3c2CCN3)c1` [Example 43, 6-[5-((S)-3-hydroxy-pyrrolidin-1-yl)-2-trifluoromethyl-phenyl]-4-(3-methoxy-phenyl)-1,2,3,6-tetrahydro-pyrrolo[2,3-d]pyridazin-7-one], which IC50 is on record?
**A.** Its IC50 is less than 100 nM.

**Q.** For `O=c1c2c(c(-c3cccc(F)c3)nn1-c1cc(N3CC[C@H](O)C3)ccc1C(F)(F)F)CCC2` [Example 65, 4-(3-fluoro-phenyl)-2-[5-((S)-3-hydroxy-pyrrolidin-1-yl)-2-trifluoromethyl-phenyl]-2,5,6,7-tetrahydro-cyclopenta[d]pyridazin-1-one], which IC50 is on record?
**A.** The IC50 was less than 100 nM.

**Q.** How did the IC50 turn out when `Cc1cc(C)cc(-c2nn(-c3cc(-c4cccnn4)ccc3C(F)(F)F)c(=O)c3c2CCN3)c1` [Example 10, 4-(3,5-dimethyl-phenyl)-6-(5-pyridazin-3-yl-2-trifluoromethyl-phenyl)-1,2,3,6-tetrahydro-pyrrolo[2,3-d]pyridazin-7-one] was run?
**A.** Its IC50 is less than 100 nM.

**Q.** How did the IC50 turn out when `CCCN(C)c1ccc(C(F)(F)F)c(-n2nc(-c3cc(OC)cc(OC)c3)c3c(c2=O)CCC3)c1` [Example 101, 4-(3,5-dimethoxy-phenyl)-2-[5-(methyl-propylamino)-2-trifluoromethyl-phenyl]-2,5,6,7-tetrahydro-cyclopenta[d]pyridazin-1-one] was run?
**A.** Its IC50 is 100 to 10000 nM.

**Q.** With `CCCOc1ccc(C(F)(F)F)c(-n2nc(-c3cc(OC)cc(OC)c3)c3c(c2=O)CCC3)c1` [Example 53, 4-(3,5-dimethoxy-phenyl)-2-(5-propoxy-2-trifluoromethyl-phenyl)-2,5,6,7-tetrahydro-cyclopenta[d]pyridazin-1-one] as the compound, how does the IC50 read?
**A.** Its IC50 is less than 100 nM.

**Q.** How did the IC50 turn out when `O=c1c2c(c(-c3ccccc3Br)nn1-c1cc(N3CC[C@H](O)C3)ccc1C(F)(F)F)CCC2` [Example 104, 4-(2-bromo-phenyl)-2-[5-((S)-3-hydroxy-pyrrolidin-1-yl)-2-trifluoromethyl-phenyl]-2,5,6,7-tetrahydro-cyclopenta[d]pyridazin-1-one] was run?
**A.** The IC50 was 100 to 10000 nM.

**Q.** `COc1cc(OC)cc(-c2nn(-c3cc(N4CC[C@H](O)C4)ccc3OC)c(=O)c3c2CCC3)c1` [Example 1-15, 4-(3,5-dimethoxy-phenyl)-2-[5-((S)-3-hydroxy-pyrrolidin-1-yl)-2-methoxy-phenyl]-2,5,6,7-tetrahydro-cyclopenta[d]pyridazin-1-one] was tested. Which IC50 did it give?
**A.** The IC50 was 100 to 10000 nM.

**Q.** With `COc1cc(OC)cc(-c2nn(-c3cc(N4CC[C@H](O)C4)ccc3F)c(=O)c3c2CCC3)c1` [Example 42, 4-(3,5-dimethoxy-phenyl)-2-[2-fluoro-5-((S)-3-hydroxy-pyrrolidin-1-yl)-phenyl]-2,5,6,7-tetrahydro-cyclopenta[d]pyridazin-1-one] as the compound, how does the IC50 read?
**A.** The IC50 was 100 to 10000 nM.

**Q.** `COc1cc(OC)cc(-c2nn(-c3cc(NCCN(C)C)ccc3C(F)(F)F)c(=O)c3c2CCC3)c1` [Example 116, 4-(3,5-dimethoxy-phenyl)-2-[5-(2-dimethylamino-ethylamino)-2-trifluoromethyl-phenyl]-2,5,6,7-tetrahydro-cyclopenta[d]pyridazin-1-one] was tested. Which IC50 did it give?
**A.** The IC50 was less than 100 nM.

**Q.** `O=c1c2c(c(-c3cccc(Br)c3)nn1-c1cc(N3CC[C@H](O)C3)ccc1C(F)(F)F)CCC2` [Example 73, 4-(3-bromo-phenyl)-2-[5-((S)-3-hydroxy-pyrrolidin-1-yl)-2-trifluoromethyl-phenyl]-2,5,6,7-tetrahydro-cyclopenta[d]pyridazin-1-one] was tested. Which IC50 did it give?
**A.** The IC50 was less than 100 nM.

**Q.** How did the IC50 turn out when `O=c1c2c(c(-c3ccc(C(F)(F)F)cc3)nn1-c1cc(N3CC[C@H](O)C3)ccc1C(F)(F)F)CCC2` [Example 75, 2-[5-((S)-3-hydroxy-pyrrolidin-1-yl)-2-trifluoromethyl-phenyl]-4-(4-trifluoromethyl-phenyl)-2,5,6,7-tetrahydro-cyclopenta[d]pyridazin-1-one] was run?
**A.** Its IC50 is 100 to 10000 nM.

**Q.** Which IC50 does the source give for `COc1cc(OC)cc(-c2nn(-c3cc(N4CC(CO)C4)ccc3C(F)(F)F)c(=O)c3c2CCCN3CCO)c1` [Example 1-40, 5-(3,5-dimethoxy-phenyl)-1-(2-hydroxy-ethyl)-7-[5-(3-hydroxymethyl-azetidin-1-yl)-2-trifluoromethylphenyl]-1,3,4,7-tetrahydro-2H-pyrido[2,3-d]pyridazin-8-one] here?
**A.** The IC50 was less than 100 nM.
